Assay results: PMC10525927, “First Generation of Antioxidant Precursors for Bioisosteric Se-NSAIDs: Design, Synthesis, and In Vitro and In Vivo Anticancer Evaluation” (Antioxidants, 2023)
Read-outs that look alike come from different tables or passages of the source.

Tests used:
[1] = DPPH radical scavenging assay; conditions: positive controls, each time point and concentration (0.03 and 0.06 mg/mL)
Experimental: Briefly, the compounds were dissolved at a concentration of 1 mg/mL in absolute methanol, and a dilution was prepared. […] Then, 100 µL of the DPPH solution was added to 100 µL of the compounds’ solution to a final concentration of 0.03 mg/mL or 0.06 mg/mL, and the decolorization of the purple radical to the yellowish reduced form was followed by recording the absorbance at 517 nm. Ascorbic acid (Asc) and Trolox were used as positive controls. Both of them, Asc and Trolox, were purchased from Sigma-Aldrich. Determinations were recorded at eight different time intervals from 0 to 120 min on a BioTeck PowerWave XS spectrophotometer, and the data were collected using KCJunior version 1.41. software. All the measurements were carried out in triplicate. Results are expressed as the percentage of the radical scavenged, calculated using the following formula: % DPPH radical scavenging = [(Acontrol − Asample)/Acontrol] × 100, wherein Acontrol refers to the absorbance of the negative control and Asample refers to the absorbance of the tested compounds.

[2] = tested on: T-47D breast cancer cells; parameters: method as in PMID 26750401, PMID 32987314, PMID 33799070, PMID 36257283; conditions: MTT; parent NSAIDs for reference, some values obtained from the literature; cited from earlier work
[3] = tested on: HCT-116 colon cancer cells; parameters: method as in PMID 26750401, PMID 32987314, PMID 33799070, PMID 36257283; conditions: MTT; parent NSAIDs for reference, some values obtained from the literature; cited from earlier work
A549 lung cancer cells [4] = tested on: A549 lung cancer cells; parameters: method as in PMID 26750401, PMID 32987314, PMID 33799070, PMID 36257283; conditions: MTT; parent NSAIDs for reference, some values obtained from the literature; cited from earlier work
[5] = tested on: PC-3 prostate cancer cells; parameters: method as in PMID 26750401, PMID 32987314, PMID 33799070, PMID 36257283; conditions: MTT; parent NSAIDs for reference, some values obtained from the literature; cited from earlier work
HT-29 colon cancer cells [6] = tested on: HT-29 colon cancer cells; parameters: method as in PMID 26750401, PMID 32987314, PMID 33799070, PMID 36257283; conditions: MTT; parent NSAIDs for reference, some values obtained from the literature; cited from earlier work
H1299 lung cancer cells [7] = tested on: H1299 lung cancer cells; parameters: method as in PMID 26750401, PMID 32987314, PMID 33799070, PMID 36257283; conditions: MTT; parent NSAIDs for reference, some values obtained from the literature; cited from earlier work
[8] = tested on: MDA-MB-231 breast cancer cells; parameters: method as in PMID 26750401, PMID 32987314, PMID 33799070, PMID 36257283; conditions: MTT; parent NSAIDs for reference, some values obtained from the literature; cited from earlier work
[9] = tested on: DU-145 prostate cancer cells; parameters: method as in PMID 26750401, PMID 32987314, PMID 33799070, PMID 36257283; conditions: MTT; parent NSAIDs for reference, some values obtained from the literature; cited from earlier work
H1299 lung cancer cells [10] = test: MTT cell viability assay, H1299; assay type: cell-based; conditions: Homo sapiens, NCI-H1299, 48 h, mean ± SD
Experimental: (§1) The cell lines were purchased from the American Type Culture Collection (ATCC). The cancer cell lines DU-145, PC-3, T-47D, MDA-MB-231, H1299, and A549, and the non-tumorigenic cells (184B5 and BEAS-2B), were maintained in RPMI 1640 medium (Gibco, Alcobendas, Madrid, Spain) supplemented with 10% fetal bovine serum (FBS; Gibco) and 1% antibiotics (10.00 units/mL penicillin and 10.00 mg/mL streptomycin; Gibco). Colon cancer cells HT-29 and HCT-116 were cultured in McCoy’s 5A medium (Gibco) supplemented with 10% fetal bovine serum (FBS; Gibco) and 1% antibiotics (10.00 units/mL penicillin and 10.00 mg/mL streptomycin; Gibco). Cells were maintained in tissue culture flasks at 37 °C and 5% CO2. The culture medium was replaced every three days.
(§2) The antiproliferative activity and selectivity in vitro of the Se-NSAID derivatives were determined by the (3-(4,5-dimethylthiazol-2-yl)-2,5-diphenyltetrazolium bromide) (MTT) assay. Compounds were dissolved in DMSO at a concentration of 0.01 M and serial dilutions were prepared. The Se-NSAID derivatives were tested at seven concentrations ranging between 1 and 100 µM in the colon (HT-29 and HCT-116), prostate (DU-145 and PC-3), breast (MDA-MB-231 and T-47D), and lung (H1299 and A549) cancer cell lines. The non-tumorigenic breast (184B5) and lung (BEAS-2B) cell lines were also tested to assess the selectivity of the compounds following the same procedure. A total of 1 × 10^4 cells were seeded per well in 96-well plates and incubated at 5% CO2 and 37 °C for 24 h. Then, cells were treated with either DMSO or increasing concentrations of the corresponding Se-NSAID derivatives for 48 h. A volume of 20 µL of MTT (5 mg/mL) was added to each well 2.5 h before the termination point. At the end of the experiment, the medium was removed, and the resultant formazan crystals formed by mitochondrial reduction of MTT were dissolved in 50 µL of DMSO. Absorbance was measured at 550 nm. IC50, GI50, TGI, and LC50 values were calculated using OriginPro version 8.5.1. software by nonlinear curve fitting. Selectivity indexes (SI) were calculated as the ratio of the IC50 values determined for the nonmalignant and the tumoral cells in the breast (IC50 (184B5)/IC50 (MDA-MB-231) and IC50 (184B5)/IC50 (T-47D)) and lung (IC50 (BEAS-2B)/IC50 (H1299) and IC50 (BEAS-2B)/IC50 (A549)) cell lines. Data were obtained from at least three independent experiments performed in triplicates.

[11] = tested on: BEAS-2B non-tumorigenic lung (bronchial epithelium) cells; test: MTT cell viability assay, BEAS-2B; assay type: cell-based; conditions: 48 h, mean ± SD
Experimental: as §1, §2

[12] = tested on: DU-145 prostate cancer cells; test: MTT cell viability assay, DU-145; assay type: cell-based; conditions: mean ± SD
Experimental: as §1, §2

[13] = tested on: 184B5 non-tumorigenic breast (mammary gland) cells; test: MTT cell viability assay, 184B5; assay type: cell-based; conditions: mean ± SD
Experimental: as §1, §2

[14] = tested on: panel of eight cancer cell lines; test: MTT cell viability assay, statements on the whole panel; assay type: cell-based; conditions: 48 h
Experimental: as §1, §2

[15] = tested on: PC-3 prostate cancer cells; test: MTT cell viability assay, PC-3; assay type: cell-based; conditions: 48 h, mean ± SD
Experimental: as §1, §2

[16] = tested on: MDA-MB-231 breast cancer cells; test: MTT cell viability assay, MDA-MB-231; assay type: cell-based; conditions: mean ± SD
Experimental: as §1, §2

[17] = tested on: HCT-116 colon cancer cells; test: MTT cell viability assay, HCT-116; assay type: cell-based; conditions: mean ± SD
Experimental: as §1, §2

A549 lung cancer cells [18] = test: MTT cell viability assay, A549; assay type: cell-based; conditions: mean ± SD
Experimental: as §1, §2

HT-29 colon cancer cells [19] = test: MTT cell viability assay, HT-29; assay type: cell-based; conditions: mean ± SD
Experimental: as §1, §2

[20] = tested on: T-47D breast cancer cells; test: MTT cell viability assay, T-47D; assay type: cell-based; conditions: 48 h, mean ± SD
Experimental: as §1, §2

[21] = in vitro TGI concentration, Table S1
[22] = in vitro TGI concentration, 48 h, Table S1

For `O=C1O[C@H]([C@@H](O)CO)C(O)=C1O` [Asc, Ascorbic acid, reference compound], the “DPPH radical scavenging activity” value [1] was “maximal scavenging activity”.
For `COc1ccc2cc([C@H](C)C(=O)O)ccc2c1` [Nap, naproxen], the IC50 [2] is listed as greater than 50 µM, the IC50 [3] is listed as greater than 50 µM and the IC50 (A549 lung cancer cells [4]) is listed as greater than 50 µM. The IC50 [5] was greater than 50 µM, the IC50 (HT-29 colon cancer cells [6]) was greater than 50 µM and the IC50 (H1299 lung cancer cells [7]) was greater than 50 µM. For the same compound, the IC50 [8] was greater than 50 µM and the IC50 [9] was greater than 50 µM.
In the case of `COc1ccc2c(c1)c(CC(=O)O)c(C)n2C(=O)c1ccc(Cl)cc1` [Ind, indomethacin], the IC50 [2] is listed as greater than 50 µM, the IC50 [3] is listed as greater than 50 µM and the IC50 (A549 lung cancer cells [4]) is listed as greater than 50 µM. For the same compound, the IC50 [5] was greater than 50 µM, the IC50 (HT-29 colon cancer cells [6]) was greater than 50 µM and the IC50 (H1299 lung cancer cells [7]) was greater than 50 µM. For the same compound, the IC50 [8] was greater than 50 µM and the IC50 [9] was greater than 50 µM.
For `COc1ccc2cc(C(C)C(=O)[Se][Se]C(=O)C(C)c3ccc4cc(OC)ccc4c3)ccc2c1` (centres unmarked) [Compound 3, 2-(6-Methoxynaphthalen-2-yl)propanoic diselenoperoxyanhydride], the IC50 (H1299 lung cancer cells [10]) was 8.1 ± 2.5 µM, the GI50 (H1299 lung cancer cells [10]; Table S1) was 6.7 ± 1.1 µM and the “LD50 BEAS-2B” value ([11]; Table S1) was 12.3 ± 2.1 µM. The GI50 ([11]; Homo sapiens, BEAS-2B, Table S1) was 7 ± 2.5 µM, the IC50 ([11]; Homo sapiens, BEAS-2B, nonmalignant lung cells) was 11.2 ± 1 µM and the “TGI BEAS-2B” value [11, 21] was 9.0 ± 1.2 µM. For the same compound, the “LD50 DU-145” value ([12]; 48 h, Table S1) was 10.4 ± 2.4 µM, the IC50 ([12]; Homo sapiens, DU-145, 48 h) was 6.1 ± 0.6 µM and the GI50 ([12]; Homo sapiens, DU-145, 48 h, Table S1) was 5 ± 0.2 µM. The “TGI DU-145” value [12, 22] was 6.1 ± 0.6 µM, the GI50 ([13]; Homo sapiens, 184B5, 48 h, Table S1) was 7.1 ± 0.5 µM and the IC50 ([13]; Homo sapiens, 184B5, 48 h, nonmalignant breast cells) was 11.9 ± 1 µM. For the same compound, the “TGI 184B5” value [13, 22] was 9.4 ± 0.2 µM, the GI50 ([14]; eight cancer cell lines, read-out: GI50 across all the cancer cell lines tested) was less than 10 µM and the IC50 ([14]; read-out: average IC50 in prostate (DU-145 and PC-3) and breast (MDA-MB-231 and T-47D) cancer cell lines) was roughly 5 µM. For the same compound, the IC50 [15] was 5.2 ± 0.2 µM, the GI50 ([15]; Table S1) was 4.4 ± 0.3 µM and the “LD50 PC-3” value ([15]; Table S1) was 5.9 ± 0.9 µM. For the same compound, the “TGI PC-3” value [15, 21] was 5.0 ± 0.1 µM, the IC50 ([16]; Homo sapiens, MDA-MB-231, 48 h) was 5.7 ± 0.8 µM and the GI50 ([16]; Homo sapiens, MDA-MB-231, 48 h, Table S1) was 5.2 ± 0.2 µM. The “TGI MDA-MB-231” value [16, 22] was 5.6 ± 0.8 µM, the IC50 ([17]; Homo sapiens, HCT-116, 48 h) was 9.1 ± 5.9 µM and the GI50 ([17]; Homo sapiens, HCT-116, 48 h, Table S1) was 9.3 ± 4.7 µM. For the same compound, the “TGI HCT-116” value [17, 22] was 30.9 ± 16.7 µM, the IC50 (A549 lung cancer cells [18]; 48 h) was greater than 100 µM and the “IC50 A549” value (A549 lung cancer cells [18]; 48 h) was “no activity at all”. For the same compound, the IC50 (A549 lung cancer cells [18]; Homo sapiens, A549, 48 h) was greater than 50 µM, the GI50 (A549 lung cancer cells [18]; Homo sapiens, A549, 48 h, Table S1) was 3.3 ± 0.4 µM and the “IC50 HT-29” value (HT-29 colon cancer cells [19]; 48 h) was “no activity at all”. The IC50 (HT-29 colon cancer cells [19]; Homo sapiens, HT-29, 48 h) was greater than 50 µM, the GI50 (HT-29 colon cancer cells [19]; Homo sapiens, HT-29, 48 h, Table S1) was 6.8 ± 1.4 µM and the “LD50 T-47D” value ([20]; Table S1) was 6.3 ± 0.7 µM. The IC50 ([20]; Homo sapiens, T47D) was 5.6 ± 0.1 µM, the GI50 ([20]; Homo sapiens, T47D, Table S1) was 1.8 ± 0.2 µM and the “TGI T-47D” value [20, 21] was 3.1 ± 0.3 µM.
